We go through one compound from patent US11191773B2, “Methods of treatment for bacterial infections” (President and Fellows of Harvard College, priority 2017, dated 2021).

Test [1] has as its system Acinetobacter baumannii Novo^R. As to the kind of experiment: Minimal inhibitory concentrations, checkerboard microdilution. In kind it is cell-based. The settings on record: Acinetobacter baumannii, 24 h. As for the experimental part: (§1) Checkerboard microdilution assays between polymyxin B and novobiocin were performed in wild-type strains (unless otherwise noted) grown at 37° C. for 24 h. Checkerboard data (FIG. 1A-1F) are representative of at least three biological replicates. The following strains were tested: A) Wild-type Escherichia coli, ATCC 25922; B) Wild-type Enterobacter cloacae; ATCC 13047) Wild-type Klebsiella pneumoniae, ATCC 700721; D) Wild-type Pseudomonas aeruginosa, ATCC 15692 (PAO1); E) Wild-type Acinetobacter baumannii, ATCC 19606; F) novobiocin-resistant Acinetobacter baumannii, ATCC 19606 gyrB(R150C).
On the technique in general: Dilution methods test growth across graded concentrations, often in twofold steps.

The next test has as its system Escherichia coli. The description is as above. Particulars: Escherichia coli; grown at 37° C. for 24 h; read-out: MIC. In kind it is cell-based. Here is the method:
as §1

A further test relates to Klebsiella pneumoniae. The test is described as above. The test is classed as cell-based. The settings on record: Klebsiella pneumoniae; grown at 37° C. for 24 h; read-out: MIC. Here is the method: as §1
The next test concerns Pseudomonas aeruginosa. Described as above. The test is classed as cell-based. Particulars: Pseudomonas aeruginosa; grown at 37° C. for 24 h; read-out: MIC. Here is the method: as §1
For another test, the system named is Gram-negative pathogens. The test can be described thus: Checkerboard microdilution assays between polymyxin B and novobiocin (FIG. 1A-1F). The test is classed as cell-based. Particulars: six strains of FIG. 1A-1F, 37° C. for 24 h.
In test [2] the test system is novobiocin-resistant A. baumannii 19606 gyrB(R150C) point mutant (Novo^R). The test is classed as cell-based.
Test [3] relates to polymyxin-resistant E. coli (clinical isolate from Brigham and Women's Hospital). The test is classed as cell-based. Particulars: 37° C. for 24 h.
Method: (§4) The effect of novobiocin/polymyxin combination was further assessed in polymyxin-resistant strains using checkerboard microdilution assays. In these assays, polymyxin-resistant strains (E. coli (clinical isolate from Brigham and Women's Hospital); A. baumannii (ATCC: 19606) mutant that is novobiocin and polymyxin-resistant; and K. pneumoniae (clinical isolate from Brigham and Women's Hospital)) were grown at 37° C. for 24 h.
The subject of test [4] is A. baumannii (ATCC: 19606) mutant that is novobiocin and polymyxin-resistant. The test can be described thus: Checkerboard microdilution assay, polymyxin-resistant strain. The test is classed as cell-based. Particulars: 37° C. for 24 h.
Method: as §4
Another test has as its system lptB1(G33C). The test can be described thus: Disk diffusion assay. The test is classed as cell-based, E. coli. Particulars: Escherichia coli, read-out: Zone of inhibition, diameter of the zone of total growth inhibition. As for the experimental part: (§2) Zones of inhibition were measured in disk diffusion assays of wild type, IptB1, and suppressors IptB1(R144H) and IptB1(G33C) pictured in FIG. 6B. Assays were conducted with 6-mm disks. Numbers outside of parentheses report the diameter of the zone of total growth inhibition (in mm), while numbers inside parenthesis report the diameter of the zone of partial growth inhibition.
(§3) Disk diffusion assays were performed as described in Sherman et al., Proc. Natl. Acad. Sci. USA 2014, 111, 4982-4987. Premade Sensi-Disc (BD-Beckton, Dickinson and Company) were used for bacitracin 10IU, erythromycin 15 μg, novobiocin 30 μg, and rifampin 5 μg.
Background: A growth-free zone around the sample is the usual read-out of agar diffusion tests.

Another test has as its system lptB1(R144H). As to the kind of experiment: Disk diffusion assay. The test is classed as cell-based, E. coli. The settings on record: Escherichia coli, read-out: Zone of inhibition, diameter of the zone of total growth inhibition. As for the experimental part: as §2, §3
In the next test the test system is lptB1. The test can be described thus: Disk diffusion assay. In kind it is cell-based, E. coli. Particulars: Escherichia coli. As for the experimental part:
as §2, §3

For a further test, the system named is wild type. As to the kind of experiment: Disk diffusion assay. The test is classed as cell-based, E. coli. Particulars: Escherichia coli; 6-mm disks; bacitracin 10IU, erythromycin 15 μg, novobiocin 30 μg, rifampin 5 μg, nalidixic acid 5 μg; read-out: Zone of inhibition, diameter of the zone of total growth inhibition. Here is the method: as §2, §3
A further test relates to IptFG(ch) mutant. The test can be described thus: Rescue of growth of coupling helix mutant (plating and disk assays). In kind it is cell-based, E. coli. As for the experimental part:
FIG. 8B is a series of pictures of bacterial overnight cultures grown in minimal medium. The cultures were serially diluted ten-fold and spotted onto LB agar plates with and without compounds.
FIG. 15 is a picture of bacterial lawns grown on plates in the presence of disks containing antibiotics. […] Strains were grown overnight in minimal media and then plated on LB plates. Each disk contained 5 μg compound.
The coupling helices in LptFG each contain a strictly-conserved glutamate, and changing both glutamates to alanine (IptFG(ch)) causes a lethal loss of function (FIG. 8B, LB panel). […] Because novobiocin also contacts R91 (FIG. 7C), we speculated that it might rescue growth of IptFG(ch) by masking the charge. […] We conclude that novobiocin suppresses Lpt defects in vivo by interacting with LptB at R91; therefore, novobiocin interacts with LptB in cells in a similar manner to that observed in the crystal structure.
as §3
Efficiency of plating assays were performed on indicated media using the method described in Butler et al., J. Bacteriol. 2013, 195, 4639-4649.

“Also recorded” adds a separate entry of the source. Where two headings read alike, the source gives them in different places.

From the text for Gram-negative pathogens: Checkerboard data are representative of at least three biological replicates.

A word on the MIC: it is the smallest concentration in the dilution series that meets the test's criterion for growth inhibition. The zone of inhibition is the size of the clear area around the sample on an inoculated plate. In the case of `CO[C@@H]1[C@@H](OC(N)=O)[C@@H](O)[C@H](Oc2ccc3c(O)c(NC(=O)c4ccc(O)c(CC=C(C)C)c4)c(=O)oc3c2C)OC1(C)C` [Novobiocin, novobiocin], the minimal inhibitory concentration (MIC) in test [1] was 190 µg/mL; in the test with Escherichia coli, 20 µg/mL; with Klebsiella pneumoniae, 270 µg/mL; in the test on Pseudomonas aeruginosa it was over 450 µg/mL. In addition, the results for the “synergy with polymyxin B” value (in the test on Gram-negative pathogens; in test [3]; in [4]) were “synergizes with polymyxin B to kill Gram-negative pathogens in vitro”, “synergizes with polymyxin B” and “synergizes with polymyxin B”, respectively. Also, in [2] (Novo^R A. baumannii), the “synergy with PMBN” value was “resistant to the same combination; also recorded: same synergy but at higher [novobiocin]”. Also, in [2] (relative to wild type), the “resistance of gyrB(R150C) point mutant towards novobiocin” value stood at 300 fold. Also, the zone of inhibition at 30 µg/disc was under 6 mm in the test with lptB1(G33C); under 6 mm in the test with lptB1(R144H); 24 mm in the test with lptB1 (read-out: Zone of inhibition, diameter of the zone of partial growth inhibition (in parentheses)); 14 mm in the test on lptB1 (read-out: Zone of inhibition, diameter of the zone of total growth inhibition); under 6 mm with wild type. Further, the “suppression of lethality of IptFG(ch)” value in the test on IptFG(ch) mutant (disks on LB plates, each disk 5 μg compound (FIG. 15)) was “suppressed the lethality of IptFG(ch)”. Moreover, the “rescue of growth of IptFG(ch)” value in the test with IptFG(ch) mutant (serial dilutions spotted onto LB agar plates with compound (FIG. 8B)) is “enables the IptFG(ch) mutant to grow”.
